# Laboratory results published in patent US20240123022A1, “A STABLE ANTI-ANGIOGENIC AND ANTI-INFLAMMATORY PHARMACEUTICAL FORMULATION AND PHARMACEUTICAL COMBINATION FOR TREATMENT AND PREVENTION OF PSORIASIS” (priority 2021, published 2024).
# Key:
# [1] = tested on: HaCaT cells; experiment: TUNEL assay; assay type: cell-based, human; details: for % increase in TUNEL-Positive cell population w.r.t. control (untreated cells): 48 h
# Method: Terminal deoxynucleotidyl transferase (TdT) dUTP Nick-End Labeling (TUNEL) assay has been designed to detect apoptotic cells that undergo extensive DNA degradation during the late stages of apoptosis. […] Cells were treated with test item (IS217 of 100 μg/ml-5000 μg/ml) and positive controls like curcumin (10 μM and 20 μM), anthralin (1 μM) and betullininc acid (10 μg/ml, 20 μg/ml, 50 μg/ml). After about 48 hours of treatment, cells were analysed for the apoptotic effect via TUNEL assay. Absorbance was measured using ELISA reader (Table 1).
# [2] = tested on: human keratinocytes (HaCaT) cells; experiment: Annexin-V externalization (pro-apoptotic effect); assay type: cell-based; details: 48 h, vs control
# Method: Pro-apoptotic effect of IS217 was evaluated in human keratinocytes (HaCaT) cells by using the Annexin-V externalization. In this study, cells were plated and incubated for about 24 hours by using dulbecco's modified eagle's medium (DMEM) with about 10% fetal bovine serum (FBS) and cells were sera starved using about 0.1% FBS for about 3 hours. HaCaT cells were treated with IS217 at about 0 hours and about 24 hours in concentration range of from about 100 μg/ml to about 5000 μg/ml and incubated for about 24 hours. Curcumin (1 μM-50 μM) was used as positive control. After about 48 hours of first treatment, cells were incubated with Annexin-V reagent and subsequently analyzed by flow cytometry (Guava technologies) for identification of cells population.
# [3] = tested on: human plasma proteins
# Method: Test item at concentration of about 100 μg/ml was incubated with human plasma at 37° C. in water bath for about 1 hour. About 500 μL of test solution was transferred to ultrafiltration devices and centrifuged for about 15 minutes at about 13000 rpm and at 37° C. and analyzed using HPLC method.
# [4] = tested on: Salmonella typhimurium tester strains; experiment: Bacterial reverse mutation test; assay type: cell-based; details: five tester strains, upto 1000 μg/plate, with and without metabolic activation
# Text: 17.1: Bacterial Reverse Mutation Test in Salmonella typhimurium Tester Strains:
# This was confirmed by in vivo studies which are mandatory for any drug, as a part of safety toxicological studies.
# [5] = target: T1, Topoisomerase II enzyme (Homo sapiens, UniProt P11388); experiment: Topoisomerase II inhibition (kinetoplast DNA decatenation, agarose gel); assay type: biochemical
# T1 construct: purchased TopoGen TG2000H-1
# T1 sequence (P11388 whole entry): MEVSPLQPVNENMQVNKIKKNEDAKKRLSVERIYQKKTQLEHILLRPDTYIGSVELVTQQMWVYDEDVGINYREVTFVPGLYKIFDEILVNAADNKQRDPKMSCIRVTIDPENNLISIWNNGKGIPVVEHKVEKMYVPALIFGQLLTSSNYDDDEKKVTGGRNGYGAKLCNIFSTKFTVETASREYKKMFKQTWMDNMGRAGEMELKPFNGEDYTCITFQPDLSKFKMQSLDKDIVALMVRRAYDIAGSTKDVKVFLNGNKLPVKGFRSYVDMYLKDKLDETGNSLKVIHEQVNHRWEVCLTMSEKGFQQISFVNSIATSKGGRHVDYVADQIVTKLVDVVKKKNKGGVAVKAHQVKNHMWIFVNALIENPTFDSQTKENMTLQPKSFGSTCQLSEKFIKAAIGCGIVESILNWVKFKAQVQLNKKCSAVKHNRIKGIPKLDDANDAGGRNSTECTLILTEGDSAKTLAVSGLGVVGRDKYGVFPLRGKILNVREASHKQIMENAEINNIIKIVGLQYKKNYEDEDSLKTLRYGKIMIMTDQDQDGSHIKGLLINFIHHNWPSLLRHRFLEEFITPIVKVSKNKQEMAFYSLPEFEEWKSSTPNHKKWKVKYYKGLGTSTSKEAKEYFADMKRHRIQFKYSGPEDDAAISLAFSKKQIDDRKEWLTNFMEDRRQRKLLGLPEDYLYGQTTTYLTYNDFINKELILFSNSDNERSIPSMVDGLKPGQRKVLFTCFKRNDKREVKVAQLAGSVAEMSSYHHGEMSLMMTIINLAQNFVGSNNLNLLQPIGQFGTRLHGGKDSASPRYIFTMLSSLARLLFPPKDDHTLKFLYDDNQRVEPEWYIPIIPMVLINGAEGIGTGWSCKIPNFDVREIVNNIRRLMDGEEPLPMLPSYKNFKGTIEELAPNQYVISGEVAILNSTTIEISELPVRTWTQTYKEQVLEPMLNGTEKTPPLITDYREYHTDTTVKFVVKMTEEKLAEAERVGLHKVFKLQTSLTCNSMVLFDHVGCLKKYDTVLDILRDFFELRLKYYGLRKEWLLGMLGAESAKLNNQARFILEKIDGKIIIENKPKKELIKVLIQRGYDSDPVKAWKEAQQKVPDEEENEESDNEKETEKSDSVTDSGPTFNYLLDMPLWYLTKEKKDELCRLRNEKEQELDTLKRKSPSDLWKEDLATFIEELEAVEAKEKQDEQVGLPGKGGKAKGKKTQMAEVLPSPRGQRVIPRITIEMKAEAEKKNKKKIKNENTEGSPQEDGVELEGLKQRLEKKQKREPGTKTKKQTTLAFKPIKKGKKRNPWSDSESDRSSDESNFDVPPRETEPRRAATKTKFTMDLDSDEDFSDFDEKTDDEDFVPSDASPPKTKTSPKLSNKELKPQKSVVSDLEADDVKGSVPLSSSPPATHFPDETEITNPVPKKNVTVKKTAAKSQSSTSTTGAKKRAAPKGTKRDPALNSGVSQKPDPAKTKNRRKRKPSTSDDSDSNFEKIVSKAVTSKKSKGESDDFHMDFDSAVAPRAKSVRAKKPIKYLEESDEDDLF
# Method: Topoisomerase II inhibitory potential of IS217 was evaluated using widely reported kinetoplast DNA as test system in presence of Topoisomerase II enzyme. IS217 was tested at concentrations ranging from 0.01 μg/ml to 1 mg/ml. Doxorubucin hydrochloride and nalidixic acid were used as positive controls at the concentration of 10 μM and 1 mg/ml, respectively.
# Inhibition of release of decatenated KDNA products was used as a specific marker to assess the inhibitory activity of IS217 on topoisomerase II enzyme, which was determined by using 1% agarose gel electrophoresis.
# [6] = tested on: HUVEC
# [7] = tested on: P-VEGFR-2, VEGFR-2, NRP-1, Akt, p-NRP1, P-Akt, ERK1/2, P-ERK1/2, p-38, P-p-38; experiment: Biomarker estimation by western blotting; assay type: cell-based; details: 500 and 1000 μg/ml, western blot
# Text: Targets screened are as follows: P-VEGFR-1, P-VEGFR-2, P-VEGFR-3, VEGFR-1, VEGFR-2, VEGFR-3, NRP-1, MPO, Akt, PAkt, ERK1/2, P-ERK1/2, MAPK, p-38, P-p-38, p-NRP1 and GAPDH.
# [8] = target: T2, CYP2C19 (Homo sapiens, UniProt P33261); experiment: in vitro; assay type: in vitro ADME
# T2 construct: purchased
# T2 sequence (P33261 whole entry): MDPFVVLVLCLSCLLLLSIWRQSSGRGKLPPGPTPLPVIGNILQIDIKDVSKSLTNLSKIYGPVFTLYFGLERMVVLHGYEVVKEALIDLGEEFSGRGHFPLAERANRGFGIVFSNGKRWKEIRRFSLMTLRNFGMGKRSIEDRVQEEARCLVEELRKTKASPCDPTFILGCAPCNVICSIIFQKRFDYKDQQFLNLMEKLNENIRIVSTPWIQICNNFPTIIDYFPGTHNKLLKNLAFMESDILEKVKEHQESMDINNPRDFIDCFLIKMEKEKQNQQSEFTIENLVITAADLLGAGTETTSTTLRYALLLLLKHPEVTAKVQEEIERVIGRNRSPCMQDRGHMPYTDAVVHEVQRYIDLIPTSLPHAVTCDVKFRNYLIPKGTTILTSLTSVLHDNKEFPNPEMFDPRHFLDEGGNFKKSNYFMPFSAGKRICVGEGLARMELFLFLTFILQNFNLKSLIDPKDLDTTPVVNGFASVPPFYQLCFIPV
# Method: (§1) The study design determined inhibition potential of test item (IS217) for CYP3A4, CYP1A2, CYP2C9, CYP2D6 and CYP2C19 using high throughput inhibitor screening kit. The experiment was performed with concentrations range of 10 μg/mL to 0.005 μg/mL of test compound IS217. Positive controls taken were specific to individual kit, which were taken as follows:
# (§2) At the end of incubation period, metabolism of fluorescent substrates to their metabolites was read using fluorescent multiwall spectrophotometer (Biotek reader). Very less (<20% at 10 μg/mL) to no inhibition potential was observed towards enzymes CYP3A4, CYP2C9, CYP2D6, CYP1A2 and CYP2C19.
# [9] = target: T3, CYP2D6 (Homo sapiens, UniProt P10635); experiment: in vitro; assay type: in vitro ADME
# T3 construct: purchased
# T3 sequence (P10635 whole entry): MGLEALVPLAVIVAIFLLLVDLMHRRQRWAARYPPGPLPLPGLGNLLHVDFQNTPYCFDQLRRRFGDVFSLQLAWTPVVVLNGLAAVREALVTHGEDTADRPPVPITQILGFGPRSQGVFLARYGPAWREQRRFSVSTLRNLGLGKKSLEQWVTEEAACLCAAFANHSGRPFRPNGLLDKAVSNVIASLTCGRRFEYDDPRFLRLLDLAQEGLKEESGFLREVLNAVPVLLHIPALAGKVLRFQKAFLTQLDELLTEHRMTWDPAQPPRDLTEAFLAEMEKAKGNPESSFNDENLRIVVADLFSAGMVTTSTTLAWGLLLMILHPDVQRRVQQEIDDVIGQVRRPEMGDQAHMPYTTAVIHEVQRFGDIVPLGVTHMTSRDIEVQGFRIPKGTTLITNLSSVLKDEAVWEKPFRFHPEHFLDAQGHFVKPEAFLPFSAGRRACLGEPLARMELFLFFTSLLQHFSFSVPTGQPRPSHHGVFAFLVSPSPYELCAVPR
# Method: as §1, §2
# [10] = target: T4, CYP3A4 (Homo sapiens, UniProt P08684); experiment: in vitro; assay type: in vitro ADME
# T4 construct: purchased
# T4 sequence (P08684 whole entry): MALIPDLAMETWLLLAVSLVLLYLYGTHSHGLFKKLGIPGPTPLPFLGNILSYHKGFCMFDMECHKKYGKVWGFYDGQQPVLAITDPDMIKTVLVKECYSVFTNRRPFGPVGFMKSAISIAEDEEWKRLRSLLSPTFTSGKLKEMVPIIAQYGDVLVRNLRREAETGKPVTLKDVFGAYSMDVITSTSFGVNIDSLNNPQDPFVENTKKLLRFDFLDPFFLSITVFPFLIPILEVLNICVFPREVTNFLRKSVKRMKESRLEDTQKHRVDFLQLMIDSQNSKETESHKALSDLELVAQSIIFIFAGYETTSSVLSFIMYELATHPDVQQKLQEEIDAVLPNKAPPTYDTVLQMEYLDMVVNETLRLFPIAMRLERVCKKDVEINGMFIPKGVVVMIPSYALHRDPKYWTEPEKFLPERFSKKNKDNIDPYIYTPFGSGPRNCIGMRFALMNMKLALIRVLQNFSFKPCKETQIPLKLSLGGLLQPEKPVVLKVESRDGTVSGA
# Method: as §1, §2
# [11] = target: T5, CYP1A2 (Homo sapiens, UniProt P05177); experiment: in vitro; assay type: in vitro ADME
# T5 construct: purchased
# T5 sequence (P05177 whole entry): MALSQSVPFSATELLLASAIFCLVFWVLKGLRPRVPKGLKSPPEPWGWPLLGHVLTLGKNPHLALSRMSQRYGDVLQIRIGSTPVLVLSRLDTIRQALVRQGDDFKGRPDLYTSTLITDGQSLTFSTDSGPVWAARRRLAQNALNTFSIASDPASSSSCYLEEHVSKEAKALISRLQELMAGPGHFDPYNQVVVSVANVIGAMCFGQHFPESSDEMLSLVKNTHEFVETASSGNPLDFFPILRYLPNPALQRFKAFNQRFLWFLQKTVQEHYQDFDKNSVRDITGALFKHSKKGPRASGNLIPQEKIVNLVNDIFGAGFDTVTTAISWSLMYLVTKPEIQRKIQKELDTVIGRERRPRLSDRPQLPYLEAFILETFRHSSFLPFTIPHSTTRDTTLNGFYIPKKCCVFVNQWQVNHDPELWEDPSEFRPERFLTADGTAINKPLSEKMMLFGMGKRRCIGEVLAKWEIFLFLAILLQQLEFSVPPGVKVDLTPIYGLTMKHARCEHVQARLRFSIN
# Method: as §1, §2
# [12] = target: T6, CYP2C9 (Homo sapiens, UniProt P11712); experiment: in vitro; assay type: in vitro ADME
# T6 construct: purchased
# T6 sequence (P11712 whole entry): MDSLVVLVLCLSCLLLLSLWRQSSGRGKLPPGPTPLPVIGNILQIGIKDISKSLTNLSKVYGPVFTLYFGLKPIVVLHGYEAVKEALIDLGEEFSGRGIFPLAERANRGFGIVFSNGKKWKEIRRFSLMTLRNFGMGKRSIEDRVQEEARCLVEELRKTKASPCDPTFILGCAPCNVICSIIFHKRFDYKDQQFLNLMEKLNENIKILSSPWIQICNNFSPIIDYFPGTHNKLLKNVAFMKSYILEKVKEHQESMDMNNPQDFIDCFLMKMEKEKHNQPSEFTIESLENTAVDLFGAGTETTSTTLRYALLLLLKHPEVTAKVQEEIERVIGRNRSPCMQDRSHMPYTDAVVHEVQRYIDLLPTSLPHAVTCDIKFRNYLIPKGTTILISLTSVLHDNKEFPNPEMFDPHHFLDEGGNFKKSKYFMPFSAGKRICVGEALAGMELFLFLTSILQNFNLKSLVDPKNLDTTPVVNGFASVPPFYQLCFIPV
# Method: as §1, §2
# [13] = tested on: HUVEC cells; experiment: Tube formation assay in HUVEC cells (VEGF induced); assay type: cell-based, human; parameters: Tube formation assay results, Avg: scale not given here
# Method: HUVEC cells were used as test system to determine angiogenic effect of IS217 by assessing the inhibitory effects of test item on endothelial cells tube formation. Prior to the tube formation assay, test item of concentration ranging 0.01 μg/ml to 1000 μg/ml were used to treat endothelial cells for its cytotoxicity effect to assess suitable concentration for tube formation assay. […] The cells corresponding to positive control group were treated with bevacizumab of concentration 1000 μg/ml. The degree of angiogenesis progression was assessed based on visual pattern recognition of photomicrographs of HUVEC cells.
substance,measurement,setting,value
"H-FAKKFAKKFK-OH [IS217, H-Phe-Ala-Lys-Lys-Phe-Ala-Lys-Lys-Phe-Lys-OH]",% increase in TUNEL-Positive cell population w.r.t. control (untreated cells),[1]; 500 μg/ml,−25.0%
same,% increase in TUNEL-Positive cell population w.r.t. control (untreated cells),[1]; 1000 μg/ml,−20.4%
same,% increase in TUNEL-Positive cell population w.r.t. control (untreated cells),[1]; 2000 μg/ml,−25.4%
same,% increase in TUNEL-Positive cell population w.r.t. control (untreated cells),[1]; 5000 μg/ml,−40.7%
same,increase in apoptotic cells (TUNEL positive population),"[1]; tested concentration range 100-5000 μg/ml, vs untreated",No increase
same,increase in necrotic cells,[2]; 100 μg/ml,3.6 fold
same,increase in late apoptotic cells,[2]; 1000 μg/ml,1.7 fold
same,increase in late apoptotic cells,[2]; 2000 μg/ml,3.4 fold
same,increase in necrotic cells,[2]; 2000 μg/ml,1.4 fold
same,increase in late apoptotic cells,[2]; 5000 μg/ml,5.6 fold
same,increase in necrotic cells,[2]; 5000 μg/ml,3.1 fold
same,increase in early apoptotic cells,"[2]; HaCaT, 100-5000 μg/ml",no increase
same,binding affinity to human plasma proteins,[3],moderate binding affinity
same,mutagenicity (gene mutations at histidine locus),[4],non mutagenic
same,topoisomerase II enzyme inhibition,[5]; 0.01 μg/ml to 10 μg/ml,no topoisomerase II enzyme inhibition
same,topoisomerase II enzyme inhibition,[5]; 100 μg/ml,some extent of inhibition
same,topoisomerase II enzyme inhibition,"[5]; 1 mg/ml, highest tested concentration",better inhibition
same,inhibition of healthy unstimulated cells (CC50 experiment),[6],no inhibition
same,inhibition of VEGF stimulated HUVEC cells,[6]; VEGF stimulated,dose dependent inhibition
same,"protein levels of P-VEGFR-2, VEGFR-2, NRP-1, Akt, p-NRP1, P-Akt, ERK1/2, P-ERK1/2, p-38, P-p-38",[7],downregulated
same,Shelf life of IS217 API,,about 2 years
same,appearance of reconstituted solution,0.9% sodium chloride,clear and colourless
same,Dissolution of the lyophilized powder completed in,reconstitution with 0.9% sodium chloride,less than 2 minutes
same,inhibition at 10 μg/mL,[8],< 20%
same,inhibition at 10 μg/mL,[9],< 20%
same,inhibition at 10 μg/mL,[10],< 20%
same,inhibition at 10 μg/mL,[11],< 20%
same,inhibition potential towards CYP1A2 as compared to others,[11],slightly higher potential
same,inhibition at 10 μg/mL,[12],< 20%
same,"Tube formation assay results, Avg",[13]; 100 μg + VEGF,2.55
same,"Tube formation assay results, Avg","[13]; 100 μg, without VEGF",0.33
same,"Tube formation assay results, Avg",[13]; 250 μg + VEGF,1.33
same,"Tube formation assay results, Avg","[13]; 250 μg, without VEGF",0.33
same,"Tube formation assay results, Avg",[13]; 500 μg + VEGF,0.88
same,"Tube formation assay results, Avg","[13]; 500 μg, without VEGF",0.33
same,"Tube formation assay results, Avg",[13]; 1000 μg + VEGF,0.55
same,"Tube formation assay results, Avg","[13]; 1000 μg, without VEGF",0.33
same,inhibition of endothelial morphogenesis on matrigel,"[13]; HUVEC, 1000 μg/ml",Complete inhibition
same,endothelial tube formation,"[13]; HUVEC, all test concentrations 100 μg/ml to 1000 μg/ml",block endothelial tube formation
